Source: patent US20230201487A1, “NEBULIZER DEVICE OPTIMIZATION FOR IMPROVED AEROSOL PARAMETERS AND USES THEREOF” (Avalyn Pharma Inc., priority 2020, published 2023)
Marks after values point to notes of the source that are not given here.

Tests used:
Type in all cases: physicochemical
[1] = Respirable aerosol droplet output rate by laser diffraction and gravimetric total output rate, simulated breathing, eFlow nebulizer; conditions: for Output rate Benefit, Combined Effect (Vented + XL): vented XL vs. non-vented L
Method: As an initial analysis, emitted aerosol saline and pirfenidone aqueous solution formulation droplet size as a function of time was measured using a Helos, Sympatec laser under partially simulated breathing conditions (adult breathing pattern, 500 mL tidal volume, 15 breaths/min with a 1:1 inhalation: exhalation ratio) using a Compas 2 breath simulator. Briefly, twelve investigational PART eFlow® nebulizers (with 6 L and 6 XL aerosol mixing chambers) with a single set of 6 (six) aerosol head class 35 (6 total heads; Table 1) were used in both L (about 49 cc volume aerosol mixing chamber) and XL (about 98 cc volume aerosol mixing chamber) configurations and tested in triplicate with the 8 mL of pirfenidone aqueous solution medicine cup reservoir under atmospheric conditions (vented) and permitting generation of negative pressure (non-vented). The following exemplary replicates were performed: A. Head 1/L/vented, B. Head 1/L/non-vented, C. Head 1/XL/vented, D. Head 1/XL/non-vented, and repeated in the following order: A, B, C, D, A, B, C, D, A, B, C, D. Results are shown in Table 2.
In this analysis, respirable aerosol droplet output rate of saline and pirfenidone formulation was determined by multiplying the respirable fraction (RF; percent emitted aerosol droplets with a diameter less than 5 microns at 20 second increments) by total output rate (TOR; calculated by dividing the total nebulizer weight loss by nebulization duration). Saline was made as 150 mM sodium chloride in water, while the pirfenidone formulation was 12.5 mg/mL pirfenidone in 5 mM citrate buffer, pH 6.0, 150 mM sodium chloride and 0.75 mM sodium saccharin in water. Duration to nebulize 8 mL saline was 8.6 min, 12.6 min, 8.5 min and 12.0 min for vented “L”, non-vented “L”, vented “XL” and non-vented “XL”, respectively. Duration to nebulize 8 mL AP01 was 8.4 min, 12.3 min, 8.3 min and 12.4 min for vented “L”, non-vented “L”, vented “XL” and non-vented “XL”, respectively.

[2] = Respirable delivered dose during breath simulation, inspiratory filters, HPLC; design: Slope of respirable delivered dose: unit not given here; conditions: for Total respirable delivered pirfenidone dose over 8 minutes: 8 mL of 12.5 mg/mL
Method: For a more clinically relevant comparison, in a second analysis, of aerosol delivery parameters for pirfenidone in solution, the respirable delivered dose (RDD; amount of deposited pirfenidone from aerosol droplets less than 5 microns in diameter) was measured during breath simulation (adult breathing pattern, 500 mL tidal volume, 15 breaths/min with a 1:1 inhalation: exhalation ratio) using a Compas 2 breath simulator was used as follows. Briefly, twelve investigational eFlow® (with 6 L and 6 XL aerosol mixing chambers) with a single set of 6 (six) aerosol head class 35 (6 total heads; Table 1) were used in both (about 49 cc volume) and XL (about 98 cc volume) aerosol mixing chamber configurations and tested in duplicate with the 8 mL medicine cup reservoir under atmospheric conditions (vented) and permitting generation of negative pressure (non-vented) during nebulization. An 8 mL dose (aqueous pirfenidone solution at concentration of 12.5 mg/ml) was loaded into the medicine cup reservoir and nebulization initiated. After 2, 4, 6 and 8 min of nebulization, inspiratory filters were collected and extracted for pirfenidone quantitation using HPLC analysis. A final filter was used after 8 min to collect remaining dose. The following exemplary replicates were performed: A. Head 1/L/vented, B. Head 1/L/non-vented, C. Head 1/XL/vented, D. Head 1/XL/non-vented, and repeated in the following order: A, B, C, D, A, B, C, D. Results are shown in Table 4.

[3] = Aerosol head/assembled device correlation study (TOR, VMD, GSD, nebulization time), 53 aerosol heads; conditions: Vented, XL Device
Method: To establish an aerosol generator (head) specification meeting the desired delivery of 8 mL aqueous pirfenidone solution in the assembled nebulizer device 1 not exceeding 16 minute delivery time (or an 0.5 mL/min output rate), a correlation study between the head-only performance with 0.9% NaCl (saline) and the assembled nebulizer device 1 (vented, XL configuration) performance with aqueous pirfenidone was conducted. Using heads only, the aerosol characteristics total output rate (TOR), volumetric median diameter (VMD) and geometric standard deviation (GSD) were performed under constant negative pressure (−250 mbar; relative to atmospheric pressure) and under ambient, atmospheric pressure conditions (0 mbar; relative to atmospheric pressure).
These heads were either tested alone using a special apparatus (saline −250 mbar or 0 mbar) or in assembled devices (saline and aqueous pirfenidone; 8 mL vented medicine cup reservoir 3 and XL aerosol mixing chamber 8 configuration).

- Benefit of aerosol mixing chamber volume on respirable aerosol droplet output rate ([1]; all device configurations regardless of medicine cup pressure): −2 to −5.5%
- Output rate Benefit, Maintaining Atmospheric Pressure (Vented) ([1]; vented L vs. non-vented L, 0-2 min): about +19.4%
- Output rate Benefit, Maintaining Atmospheric Pressure (Vented) ([1]; vented L vs. non-vented L, 6-8 min): about +17.5%
- Output rate Benefit, Combined Effect (Vented + XL) ([1]; 0-2 min): about +17%
- Output rate Benefit, Combined Effect (Vented + XL) ([1]; 6-8 min): ~+12.6%
- Output rate Benefit, Maintaining Atmospheric Pressure (Vented) ([1]; vented XL vs. non-vented XL, 0-2 min): about +23.8%
- Output rate Benefit, Maintaining Atmospheric Pressure (Vented) ([1]; vented XL vs. non-vented XL, 6-8 min): about +17%
- Theoretical total delivery rate ([2]; assuming a fifty percent respirable delivered dose, 12.5 mg/mL): 6.25 mg per minute
- Slope of respirable delivered dose ([2]; non-vented (NV), L aerosol mixing chamber): −0.16
- Respirable Delivered Dose ([2]; non-vented (NV), L aerosol mixing chamber, 0-2 min): 5.75 mg/time increment
- Respirable Delivered Dose ([2]; non-vented (NV), L aerosol mixing chamber, 2-4 min): 5.71 mg/time increment
- Respirable Delivered Dose ([2]; non-vented (NV), L aerosol mixing chamber, 4-6 min): 5.49 mg/time increment
- Respirable Delivered Dose ([2]; non-vented (NV), L aerosol mixing chamber, 6-8 min): 5.27 mg/time increment
- Slope of respirable delivered dose ([2]; non-vented (NV), XL aerosol mixing chamber): −0.20
- Respirable Delivered Dose ([2]; non-vented (NV), XL aerosol mixing chamber, 0-2 min): 6.50 mg/time increment
- Respirable Delivered Dose ([2]; non-vented (NV), XL aerosol mixing chamber, 2-4 min): 6.44 mg/time increment
- Respirable Delivered Dose ([2]; non-vented (NV), XL aerosol mixing chamber, 4-6 min): 6.37 mg/time increment
- Respirable Delivered Dose ([2]; non-vented (NV), XL aerosol mixing chamber, 6-8 min): 5.87 mg/time increment
- RDD Benefit, Increased Aerosol mixing chamber (XL) ([2]; non-vented L vs. non-vented XL, 0-2 min): 13.15^g %
- RDD Benefit, Increased Aerosol mixing chamber (XL) ([2]; non-vented L vs. non-vented XL, 6-8 min): 11.28^g %
- Respirable delivered dose per minute ([2]; non-vented L, 12.5 mg/mL): 2.78 mg/min
- Total respirable delivered pirfenidone dose over 8 minutes ([2]; non-vented L): 22.22 mg
- Slope of respirable delivered dose ([2]; vented (V), L aerosol mixing chamber): 0.12
- Respirable Delivered Dose ([2]; vented (V), L aerosol mixing chamber, 0-2 min, 8 mL of 12.5 mg/ml): 5.97 mg/time increment
- Respirable Delivered Dose ([2]; vented (V), L aerosol mixing chamber, 2-4 min): 6.16 mg/time increment
- Respirable Delivered Dose ([2]; vented (V), L aerosol mixing chamber, 4-6 min): 6.33 mg/time increment
- Respirable Delivered Dose ([2]; vented (V), L aerosol mixing chamber, 6-8 min): 6.32 mg/time increment
- Slope of respirable delivered dose ([2]; vented (V), XL aerosol mixing chamber): 0.13
- Respirable Delivered Dose ([2]; vented (V), XL aerosol mixing chamber, 0-2 min): 6.65 mg/time increment
- Respirable Delivered Dose ([2]; vented (V), XL aerosol mixing chamber, 2-4 min): 7.07 mg/time increment
- Respirable Delivered Dose ([2]; vented (V), XL aerosol mixing chamber, 4-6 min): 7.01 mg/time increment
- Respirable Delivered Dose ([2]; vented (V), XL aerosol mixing chamber, 6-8 min): 7.11 mg/time increment
- RDD Benefit, Increased Aerosol mixing chamber (XL) ([2]; vented L vs. vented XL, 0-2 min): 11.35^e %
- RDD Benefit, Increased Aerosol mixing chamber (XL) ([2]; vented L vs. vented XL, 6-8 min): 12.49^e %
- Respirable delivered dose per minute ([2]; vented XL, 12.5 mg/mL): 3.48 mg/min
- Total respirable delivered pirfenidone dose over 8 minutes ([2]; vented XL): 27.84 mg
- Total Output Rate (TOR), Average [3]: 0.782 g/min
- Total Output Rate (TOR), Max [3]: 1.049 g/min
- Total Output Rate (TOR), Min [3]: 0.382 g/min
SMILES: Cc1ccc(=O)n(-c2ccccc2)c1 [pirfenidone, 5-methyl-1-phenyl-2-(1H)-pyridone]
